Experimental data published in patent US20250289799A1, “PYRIMIDINE COMPOUND, METHOD FOR PREPARING SAME, AND PHARMACEUTICAL USE THEREOF” (JIANGSU YAHONG MEDITECH CO., LTD., priority 2022, published 2025).

Tests used:
MDA-MB-436 = experiment: CTG experiment on cell activity (CellTiter-Glo, 7 days); type: cell-based; conditions: MDA-MB-436 cells, cultured for 7 days
Method: • 1. Object: USP1 inhibitors were screened on 96-well plate by CTG assay. • 2. Materials: • The cells used were MDA-MB-436 (manufacturer: Nanjing Cobioer Biotechnology Co., Ltd.), and the culture medium was DMEM. • CTG (CellTiter-Glo® Luminescent Cell Viability Assay kit) (Promega, Catalog No.: G7572) • 96-well plate (Corning, Catalog No.: 3610) • 3. Compounds: • All compounds were dissolved in 100% DMSO to obtain 50 mM stock solutions. • 4. Experimental methods:
The cells to be tested were spread into a 96-well plate at a certain density at 200 μL per well, and 200 μL of cell culture medium was added to the blank well. The spread cell plate was placed in a 37° C. incubator.
The compound was diluted to different concentrations with 100% DMSO, and the final concentration of DMSO was 4%.
The compound formulated in (2) was added to the cell plate of (1) (10 μL per well). The cell plate with the compound added was placed in a 37° C. incubator, and cultured for 7 days before assay.
The substrate and buffer of the CTG kit were mixed evenly. The cell plate with the compound added in (3) was taken out from the incubator, and placed at room temperature for 30 minutes. The compound-containing culture medium in the cell plate was removed, 100 μL of PBS and 50 μL of CTG reagent were added to each well. The mixture in each well was mixed and shaked for 3 minutes, and then incubated at room temperature for 10 minutes. The plate was read by BIotek microplate reader, and the parameter was 567 CPM. • 5. Curve fitting • Same as enzyme assay.

[1] = target: Recombinant human His6-USP1/His6-UAF1 complex protein (Homo sapiens (Human), UniProt O94782); experiment: In vitro , fluorescence detection with Ub-Rho substrate; type: biochemical
Sequence of Recombinant human His6-USP1/His6-UAF1 complex protein (O94782 whole entry): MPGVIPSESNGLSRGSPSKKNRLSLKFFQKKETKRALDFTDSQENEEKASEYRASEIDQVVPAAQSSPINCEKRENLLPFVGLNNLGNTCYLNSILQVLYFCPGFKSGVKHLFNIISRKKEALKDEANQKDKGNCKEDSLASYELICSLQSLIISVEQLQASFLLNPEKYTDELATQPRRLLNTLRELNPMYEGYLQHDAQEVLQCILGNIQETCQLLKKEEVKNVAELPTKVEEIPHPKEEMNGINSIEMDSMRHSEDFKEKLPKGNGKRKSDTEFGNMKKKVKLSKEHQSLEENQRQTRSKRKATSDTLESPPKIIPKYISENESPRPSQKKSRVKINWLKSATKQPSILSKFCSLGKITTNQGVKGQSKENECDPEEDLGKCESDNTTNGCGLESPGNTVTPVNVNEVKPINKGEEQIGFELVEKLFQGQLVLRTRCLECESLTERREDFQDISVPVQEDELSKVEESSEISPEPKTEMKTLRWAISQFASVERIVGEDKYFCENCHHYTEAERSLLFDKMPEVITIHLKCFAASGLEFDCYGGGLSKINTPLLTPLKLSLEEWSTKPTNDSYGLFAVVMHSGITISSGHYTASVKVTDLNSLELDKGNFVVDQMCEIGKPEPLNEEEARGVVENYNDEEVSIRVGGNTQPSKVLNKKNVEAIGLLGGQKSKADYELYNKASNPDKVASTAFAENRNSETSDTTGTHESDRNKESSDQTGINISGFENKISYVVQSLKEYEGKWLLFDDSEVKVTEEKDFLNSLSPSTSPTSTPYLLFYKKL
Sequence of Recombinant human His6-USP1/His6-UAF1 complex protein (Q8TAF3 whole entry partner): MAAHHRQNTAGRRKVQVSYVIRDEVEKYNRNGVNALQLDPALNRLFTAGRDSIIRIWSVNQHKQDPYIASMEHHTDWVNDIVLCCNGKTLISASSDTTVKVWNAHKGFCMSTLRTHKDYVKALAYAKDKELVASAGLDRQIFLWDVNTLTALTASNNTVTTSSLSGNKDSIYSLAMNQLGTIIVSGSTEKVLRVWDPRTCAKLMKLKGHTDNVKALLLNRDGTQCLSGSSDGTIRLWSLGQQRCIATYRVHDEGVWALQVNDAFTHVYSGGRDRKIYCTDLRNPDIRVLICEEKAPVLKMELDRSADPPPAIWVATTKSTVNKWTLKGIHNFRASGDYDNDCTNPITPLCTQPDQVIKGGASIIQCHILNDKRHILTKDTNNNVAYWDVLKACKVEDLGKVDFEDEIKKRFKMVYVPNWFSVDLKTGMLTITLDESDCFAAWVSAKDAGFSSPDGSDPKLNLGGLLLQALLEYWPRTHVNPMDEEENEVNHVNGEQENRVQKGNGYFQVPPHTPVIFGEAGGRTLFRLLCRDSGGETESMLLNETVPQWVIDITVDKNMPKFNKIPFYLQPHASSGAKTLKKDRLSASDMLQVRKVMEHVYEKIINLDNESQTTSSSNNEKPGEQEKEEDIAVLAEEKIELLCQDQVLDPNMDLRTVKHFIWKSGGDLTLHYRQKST
Method: Experimental object: The USP1 […] inhibitory activity of the compounds was screened by fluorescence detection method using 384-well plates.
Experimental materials: Recombinant human His6-USP1/His6-UAF1 complex protein (R&D, Catalog No.: E-568-050), ubiquitin rhodamine 110 protein (Ub-Rho) (R&D, Catalog No.: U-555-050), 384-well plate (Perkin Elmer, Catalog No.: 6007279); all compounds were dissolved in 100% DMSO to obtain a 50 mM stock solution.
• 1) Preparation of 1× assay buffer: 1× assay buffer (modified Tris buffer) was prepared; • 2) Compound dilution: The compound was transferred to the assay plate by Echo. The final concentration of DMSO is 1%; • 3) Preparation of enzyme solution: Recombinant human His6-USP1/His6-UAF1 complex protein was added to 1× assay buffer to obtain an enzyme solution; • 4) Preparation of substrate solution: Ubiquitin rhodamine 110 protein CF (Ub-Rho) was added to 1× assay buffer to obtain a substrate solution; • 5) 10 μL enzyme solution was transferred to the assay plate, and 10 μL 1× assay buffer was added to the control well; • 6) The plate was incubated at room temperature for 1 hour; • 7) 10 μL substrate solution was added to each well to start the reaction, and the plate was centrifuged for 30 seconds, and shaked for 30 seconds; • 8) The plate was read with Envision after 30 minutes, and the parameters were excitation light 480 nm and emission light 540 nm; • 9) The data was collected and summarized; • 10) Curve fitting: The data was fitted in Excel, Inhibition rate formula: Percent inhibition rate=(maximum value−signal value)/(maximum value−minimum value)×100; the data was fitted in XL-Fit, • Half inhibition concentration formula: Percent inhibition rate=minimum concentration+(maximum concentration−minimum concentration)/(1+(half inhibition concentration/compound concentration)^slope); • Half inhibition concentration is referred to as IC50 hereinafter.

IC50 (MDA-MB-436; Homo sapiens, 168 h)	Structure (SMILES)	also measured
1.27 µM	COc1cnc(-c2ccccc2C(C)C)nc1N(C)Cc1ccc(-c2ccccn2)cc1 [Compound 1, 2-(2-isopropylphenyl)-5-methoxy-N-methyl-N-(4-(pyridin-2-yl)benzyl)pyrimidin-4-amine]	
0.002 µM	COc1cnc(-c2ccccc2C(C)C)nc1NCC1CCC(c2nc(C(F)(F)F)cn2C)CC1 [Compound 6, 2-(2-Isopropylphenyl)-5-methoxy-N-(((1R,4R)-4-(1-methyl-4-(trifluoromethyl)-1H-imidazol-2-yl)cyclohexyl)methyl)pyrimidin-4-amine]	
	CC(C)c1ccccc1-c1ncc2c(n1)N(C[C@H]1CC[C@H](c3nc(C(F)(F)F)cn3C)CC1)CCO2 [Compound 13, 2-(2-Isopropylphenyl)-8-(((1R,4R)-4-(1-methyl-4-(trifluoromethyl)-1H-imidazol-2-yl)cyclohexyl)methyl)-7,8-dihydro-6H-pyrimido[5,4-b][1,4]oxazine]	IC50 [1]: 0.0019 µM
	CC(C)c1ccccc1-c1ncc2c(n1)N(C[C@H]1CC[C@@H](c3nc(C(F)(F)F)cn3C)CC1)CCO2 [Compound 14, 2-(2-Isopropylphenyl)-8-(((1s,4s)-4-(1-methyl-4-(trifluoromethyl)-1H-imidazol-2-yl)cyclohexyl)methyl)-7,8-dihydro-6H-pyrimido[5,4-b][1,4]oxazine]	IC50 [1]: 0.06 µM
0.209 µM	COc1ncnc(C2CC2)c1-c1ncc2c(n1)N(CC1CCC(c3nc(C(F)(F)F)cn3C)CC1)CCO2 (centres unmarked) [Compound 22, 2-(4-Cyclopropyl-6-methoxypyrimidin-5-y1)-8-(((1r,4r)-4-(1-methyl-4-(trifluoromethyl)-1H-imidazol-2-yl)cyclohexyl)methyl)-7,8-dihydro-6H-pyrimido[5,4-b][1,4]oxazine]	
	COc1ncnc(C2CC2)c1-c1nc(NCc2ccc(-c3ccccn3)cc2)c2occc2n1 [Example 34, 2-(4-Cyclopropyl-6-methoxypyrimidin-5-y1)-N-(4-(pyridin-2-yl)benzyl)furo[3,2-d]pyrimidin-4-amine]	IC50 [1]: 0.0069 µM
> 5 µM	COc1ncnc(C2CC2)c1-c1nc(NCc2ccc(-c3ccccn3)cc2)c2[nH]ccc2n1 [Example 37, 2-(4-Cyclopropyl-6-methoxypyrimidin-5-yl)-N-(4-(pyridin-2-yl)benzyl)-5H-pyrrolo[3,2-d]pyrimidin-4-amine]	
1.17 µM	COc1cnc(-c2ccccc2C(C)C)nc1NCc1ccc(OCc2ccccn2)cc1 [Example 67, 2-(2-Isopropylphenyl)-5-methoxy-N-(4-(pyridin-2-ylmethoxy)benzyl)pyrimidin-4-amine]	
1.8 µM	CC(C)c1ccccc1-c1nc(NCc2ccc3c(c2)CCN(C)C3=O)c2occc2n1 [Example 77, 6-(((2-(2-Isopropylphenyl)furo[3,2-d]pyrimidin-4-yl)amino)methyl)-2-methyl-3,4-dihydroisoquinolin-1(2H)-one]	
> 5 µM	CC(C)c1ccccc1-c1nc(NCc2ccc3c(c2)CCN(C(C)C)C3=O)c2occc2n1 [Example 78, 2-Isopropyl-6-(((2-(2-isopropylphenyl)furo[3,2-d]pyrimidin-4-yl)amino)methyl)-3,4-dihydroisoquinolin-1(2H)-one]	
1.21 µM	CCOCCOc1ccc(CNc2nc(-c3ccccc3C(C)C)nc3ccoc23)cc1 [Example 79, N-(4-(2-Ethoxyethoxy)benzyl)-2-(2-isopropylphenyl)furo[3,2-d]pyrimidin-4-amine]	
2.65 µM	CC(C)c1ccccc1-c1ncc(N2CCOCC2)c(NCc2ccc(-c3nc(C(F)(F)F)cn3C)cc2)n1 [Example 87, 2-(2-Isopropylphenyl)-N-(4-(1-methyl-4-(trifluoromethyl)-1H-imidazol-2-yl)benzyl)-5-morpholinopyrimidin-4-amine]	
> 5 µM	COc1ncnc(C2CC2)c1-c1ncc(OC(C)C)c(NCC23CCC(c4ccc(C(F)(F)F)cn4)(CC2)CC3)n1 [Example 112, 4′-Cyclopropyl-5-isopropoxy-6′-methoxy-N-((4-(5-(trifluoromethyl)pyridin-2-yl)bicyclo[2.2.2]octan-1-yl)methyl)-[2,5′-bipyrimidin]-4-amine]	
> 5 µM	COc1ncnc(C2CC2)c1-c1nc(NCc2ccc3c(c2)CCN(C)C3=O)c2occc2n1 [Example 114, 6-(((2-(4-Cyclopropyl-6-methoxypyrimidin-5-yl)furo[3,2-d]pyrimidin-4-yl)amino)methyl)-2-methyl-3,4-dihydroisoquinolin-1(2H)-one]	
1.61 µM	COc1ncnc(C2CC2)c1-c1nc(NCc2ccc3c(c2)CCN(C(C)C)C3=O)c2occc2n1 [Example 115, 6-(((2-(4-Cyclopropyl-6-methoxypyrimidin-5-yl)furo[3,2-d]pyrimidin-4-yl)amino)methyl)-2-isopropyl-3,4-dihydroisoquinolin-1(2H)-one]	
1.44 µM	COc1cnc(-c2cccc3ccn(C)c23)nc1NCc1ccc(-c2nc(C(F)(F)F)cn2C)cc1 [Example 143, 5-Methoxy-2-(1-methyl-1H-indol-7-yl)-N-(4-(1-methyl-4-(trifluoromethyl)-1H-imidazol-2-yl)benzyl)pyrimidin-4-amine]	
1.67 µM	COc1cnc(-c2cccc3ccn(C)c23)nc1NCc1ccc(-n2nc(C(F)(F)F)cc2C)cc1 [Example 144, 5-Methoxy-2-(1-methyl-1H-indol-7-yl)-N-(4-(5-methyl-3-(trifluoromethyl)-1H-pyrazol-1-yl)benzyl)pyrimidin-4-amine]	
1.06 µM	COc1cnc(-c2cccc3c2N(C)CC3)nc1NCc1ccc(-n2ncc(C(F)(F)F)c2C)cc1 [Example 146, 5-Methoxy-N-(4-(5-methyl-4-(trifluoromethyl)-1H-pyrazol-1-yl)benzyl)-2-(1-methylindolin-7-yl)pyrimidin-4-amine]	
	COc1cnc(-c2c(C)ncn2C(C)C)nc1NCC12CCC(c3ccc(C(F)(F)F)cn3)(CC1)CC2 [Example 148, 2-(1-Isopropyl-4-methyl-1H-imidazol-5-yl)-5-methoxy-N-((4-(5-(trifluoromethyl)pyridin-2-yl)bicyclo[2.2.2]octan-1-yl)methyl)pyrimidin-4-amine]	IC50 [1]: 1.05 µM
	COc1cnc(-c2c(OC)ncnc2C2CC2)nc1NCC12C3C4C1C1C2C3C41c1nc(C(F)(F)F)cn1C (centres unmarked) [Example 215]	IC50 [1]: 0.0022 µM; IC50 (MDA-MB-436): 0.0087 µM

Structure (SMILES)	IC50 (MDA-MB-436; Homo sapiens, 168 h)	also measured
COC1CC(Oc2ccc(CNc3nc(-c4ccccc4C(C)C)nc4ccoc34)cc2)C1 (centres unmarked) [Example 80, 2-(2-Isopropylphenyl)-N-(4-(3-methoxycyclobutoxy)benzyl)furo[3,2-d]pyrimidin-4-amine]	> 5 µM	
COc1ncnc(C2CC2)c1-c1nc(NCc2ccc(OC3CC(OC)C3)cc2)c2occc2n1 (centres unmarked) [Example 118, 2-(4-Cyclopropyl-6-methoxypyrimidin-5-yl)-N-(4-(3-methoxycyclobutoxy)benzyl)furo[3,2-d]pyrimidin-4-amine]	1.49 µM	
